Key:
Experiment in all cases: relative viability (nuclei count vs DMSO), 5 days (fraction); higher = more cells survive
[1] = compound: C1CC1C(=O)NC2=NNC3=C2C=CC(=C3)C4=CC(=CC=C4)C(=O)NC5CC5 [XMD13-2] + Nc1nc2[nH]cc(CCc3ccc(C(=O)N[C@@H](CCC(=O)O)C(=O)O)cc3)c2c(=O)[nH]1 [Pemetrexed] (partner 0.2 µM)
How it was run: (§1)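 Nuclei were stained with Hoechst during a one-step fixation (final 0.05% Triton X-100, 1% formaldehyde, 1 ug/ml Hoechst) carried out 5 days after dosing, then counted on 4× images. The cells, lung cancer lines in 1536-well plates, had been dosed by pin tool the day after seeding with one drug alone or a fixed anchor-drug dose plus five library-drug doses (not always all listed) in √10 steps. Relative viability is the nuclei count in treated wells divided by that in vehicle wells, and each value is the median of duplicate plates.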

[2] = compound: C1CC1C(=O)NC2=NNC3=C2C=CC(=C3)C4=CC(=CC=C4)C(=O)NC5CC5 [XMD13-2] + CS(=O)(=O)N1CCN(Cc2cc3nc(-c4cccc5[nH]ncc45)nc(N4CCOCC4)c3s2)CC1 [Pictilisib] (partner 1 µM)
How it was run: as §1

[3] = compound: Cc1nc(Nc2ncc(C(=O)Nc3c(C)cccc3Cl)s2)cc(N2CCN(CCO)CC2)n1 [Dasatinib] + CC(=O)c1c(C)c2cnc(Nc3ccc(N4CCNCC4)cn3)nc2n(C2CCCC2)c1=O [Palbociclib] (partner 0.5 µM)
How it was run: as §1

[4] = compound: C1CC1C(=O)NC2=NNC3=C2C=CC(=C3)C4=CC(=CC=C4)C(=O)NC5CC5 [XMD13-2] + CC(C)C[C@H](NC(=O)[C@H](Cc1ccccc1)NC(=O)c1cnccn1)B(O)O [Bortezomib] (partner 0.002 µM)
How it was run: as §1

Cell Line	relative viability ([1]; first compound 0.05 µM)	relative viability ([1]; first compound 0.1581 µM)	relative viability ([1]; first compound 0.5 µM)	relative viability ([1]; first compound 1.581 µM)	relative viability ([1]; first compound 5 µM)	relative viability ([2]; first compound 0.05 µM)	relative viability ([2]; first compound 0.1581 µM)	relative viability ([2]; first compound 0.5 µM)	relative viability ([2]; first compound 1.581 µM)	relative viability ([2]; first compound 5 µM)	relative viability ([3]; first compound 0.005 µM)	relative viability ([3]; first compound 0.01581 µM)	relative viability ([3]; first compound 0.05 µM)	relative viability ([3]; first compound 0.1581 µM)	relative viability ([3]; first compound 0.5 µM)	relative viability ([4]; first compound 0.05 µM)	relative viability ([4]; first compound 0.1581 µM)	relative viability ([4]; first compound 0.5 µM)	relative viability ([4]; first compound 1.581 µM)	relative viability ([4]; first compound 5 µM)
201T	0.372	0.309	0.384	0.329	0.364	0.747	0.72	0.639	0.673	0.719	0.341	0.306	0.311	0.296	0.237	1.12	1.12	1.16	1.15	1.18
A549						0.677	0.508	0.565	0.477	0.504										
A-427	1.04	0.922	0.995		0.82	0.871	0.732	0.797	0.537	0.558	0.5	0.507	0.525	0.42	0.394	0.993	1.06	0.993	0.858	0.857
ABC-1						0.946	0.744	0.706	0.791	0.3	0.625	0.5	0.662	0.524	0.688	0.331	0.319	0.261	0.289	0.296
BEN	0.876	0.858	0.734	0.641	0.803	0.663	0.535	0.585	0.562	0.523	0.448	0.387	0.43	0.365	0.34	1.2	0.83	0.847	0.712	0.801
CAL-12T	1.27	1.1	1.25	1.11	1.23	0.531		0.339	0.327	0.371	0.418	0.414	0.402	0.191	0.144	1.2		1.01	0.837	1.16
COR-L23	0.197	0.194	0.204	0.218	0.197	0.8	0.72	0.857	0.818	0.64	0.317	0.229	0.229	0.168	0.19	1.12	0.994	1.04	1.08	1.09
COR-L 105	1.01	1.26	1.04	0.98	1.26	0.398	0.361	0.437	0.458	0.335	0.429	0.363	0.368	0.371	0.275	1.06	0.953	0.737	0.905	0.75
Calu-6						1.09	0.92	0.909	0.757	0.439						1	1.04	1.1	0.871	0.789
ChaGo-K-1	0.255	0.267	0.259	0.253	0.264	0.82	0.631	0.461		0.599	0.947	0.881	0.892	0.802	0.634	1.09	1.02	1.02		0.911
EBC-1						0.395	0.431	0.377	0.287	0.142						0.61	0.523	0.552	0.531	0.299
EKVX	0.457	0.324	0.432		0.428	0.476	0.401	0.434	0.42	0.388	0.412	0.319	0.332	0.199	0.13	1.23	1.03	1.06	1.1	1.09
EMC-BAC-2	0.42	0.451	0.431	0.457	0.494	0.596	0.497	0.531	0.505	0.413	0.507	0.424	0.417	0.319	0.243	1.17	1.04	1.12	1.07	0.923
EPLC-272H	0.345	0.31	0.247	0.254	0.168	0.349	0.271	0.271	0.23	0.187	0.31	0.327	0.314	0.296	0.143	0.747	0.886	0.855	0.856	0.871
H3255	0.618	0.546	0.579	0.611	0.625	0.589	0.525	0.485	0.526	0.445	0.312	0.333	0.329	0.317	0.274	1	0.75	0.817	0.575	0.764
HARA	0.224	0.273	0.269	0.208	0.323	0.372	0.394	0.493	0.314	0.23	0.303	0.243	0.155	0.177	0.114	1.31	1.11	0.671	1.17	1.17
HCC-15	0.237	0.204	0.218	0.224	0.214	0.766	0.721	0.778	0.712	0.467	0.714	0.669	0.673	0.578	0.565	1.12	0.994	1.11	0.981	1.05
HCC-44	0.573	0.536	0.67	0.727	0.631	0.665	0.597	0.609	0.533	0.571	1.07	0.878	1.06	1.14	1.29	0.899	0.92	0.897	0.804	0.966
